In the supplement of paper PMC12463676, “Small-molecule dissolution of stress granules by redox modulation benefits ALS models” (Nature Chemical Biology, 2025):

Tests used:
lipoamide = compound: NC(=O)CCCCC1CCSS1 [lipoamide]; experiment: thermal stability z-score vs DMSO; higher = more thermally stabilized by treatment; conditions: HeLa, lipoamide concentration 100 µM
Description: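 Cellular thermal proteome profiling in HeLa cells. Cells were treated with 100 µM lipoamide for 1 h, with or without 1 mM arsenate for a further 1 h, then heated to ten temperatures (37-66.3 °C), and soluble protein was quantified by TMT mass spectrometry relative to 0.1% DMSO controls. The thermal stability score (sum of log2 fold changes minus the abundance score) was transformed to a z-score; mean of n = 3 experiments.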

potassium arsenate = compound: O=[As]([O-])(O)O.[K+] [potassium arsenate]; experiment: as above; conditions: HeLa; arsenate concentration 1 mM
Description: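 Cellular thermal proteome profiling in HeLa cells treated with 1 mM arsenate for 1 h (DMSO pretreatment), heated to ten temperatures (37-66.3 °C). Soluble protein was quantified by TMT mass spectrometry relative to DMSO controls; the thermal stability score was transformed to a z-score; mean of n = 3 experiments.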

[1] = arsenate co-treatment: 1 mM arsenate 1 h
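Note: each temperature applied for 3 min, abundance score taken as mean log2 fold change at the two lowest temperatures, z-score obtained by mean subtraction and division by SD.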

Chain of UniProt P18085 (P18085 whole entry): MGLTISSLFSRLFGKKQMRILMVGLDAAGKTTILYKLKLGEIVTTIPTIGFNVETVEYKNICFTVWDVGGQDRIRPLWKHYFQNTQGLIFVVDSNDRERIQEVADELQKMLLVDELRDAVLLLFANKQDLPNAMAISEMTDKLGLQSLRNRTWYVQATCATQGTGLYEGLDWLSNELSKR
Chain of UniProt Q92624 (Q92624 whole entry): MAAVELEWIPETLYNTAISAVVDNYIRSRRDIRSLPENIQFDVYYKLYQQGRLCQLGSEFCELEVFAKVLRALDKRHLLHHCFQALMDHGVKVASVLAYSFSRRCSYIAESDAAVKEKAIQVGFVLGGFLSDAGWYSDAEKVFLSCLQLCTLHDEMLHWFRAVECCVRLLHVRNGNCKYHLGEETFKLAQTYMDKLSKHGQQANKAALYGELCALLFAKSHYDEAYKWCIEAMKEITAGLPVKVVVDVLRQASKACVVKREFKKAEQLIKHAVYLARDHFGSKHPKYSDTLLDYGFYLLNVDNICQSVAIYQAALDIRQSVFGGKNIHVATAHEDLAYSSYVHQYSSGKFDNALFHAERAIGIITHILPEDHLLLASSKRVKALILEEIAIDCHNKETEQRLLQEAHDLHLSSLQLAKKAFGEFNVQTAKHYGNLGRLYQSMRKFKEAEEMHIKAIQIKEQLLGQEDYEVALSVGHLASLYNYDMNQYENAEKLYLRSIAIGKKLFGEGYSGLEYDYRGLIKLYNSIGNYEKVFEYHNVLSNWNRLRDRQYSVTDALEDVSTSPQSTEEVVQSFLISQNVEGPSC
Chain of UniProt P48444 (P48444 whole entry): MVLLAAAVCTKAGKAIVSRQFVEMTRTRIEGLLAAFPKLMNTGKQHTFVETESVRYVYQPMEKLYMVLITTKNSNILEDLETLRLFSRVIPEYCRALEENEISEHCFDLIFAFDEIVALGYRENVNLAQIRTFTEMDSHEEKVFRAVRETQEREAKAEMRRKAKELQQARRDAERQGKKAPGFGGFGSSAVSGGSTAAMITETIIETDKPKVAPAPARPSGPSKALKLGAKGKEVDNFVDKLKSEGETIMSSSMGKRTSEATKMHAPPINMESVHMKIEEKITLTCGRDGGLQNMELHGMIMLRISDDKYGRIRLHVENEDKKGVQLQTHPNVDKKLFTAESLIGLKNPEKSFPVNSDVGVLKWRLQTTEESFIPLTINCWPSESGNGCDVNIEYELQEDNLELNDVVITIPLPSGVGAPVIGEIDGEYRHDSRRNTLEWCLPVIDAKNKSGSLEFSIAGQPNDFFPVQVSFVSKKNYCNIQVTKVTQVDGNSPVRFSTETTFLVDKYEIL
Chain of UniProt P53365 (P53365 whole entry): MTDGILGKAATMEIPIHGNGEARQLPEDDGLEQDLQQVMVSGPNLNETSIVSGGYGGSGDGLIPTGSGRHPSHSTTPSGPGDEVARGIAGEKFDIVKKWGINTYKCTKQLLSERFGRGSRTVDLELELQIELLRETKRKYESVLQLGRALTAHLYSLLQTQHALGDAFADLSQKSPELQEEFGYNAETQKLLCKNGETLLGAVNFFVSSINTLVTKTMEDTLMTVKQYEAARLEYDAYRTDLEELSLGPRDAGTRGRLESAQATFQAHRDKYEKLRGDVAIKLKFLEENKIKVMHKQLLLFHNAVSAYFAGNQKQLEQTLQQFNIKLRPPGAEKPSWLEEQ
Chain of UniProt Q13017 (Q13017 whole entry): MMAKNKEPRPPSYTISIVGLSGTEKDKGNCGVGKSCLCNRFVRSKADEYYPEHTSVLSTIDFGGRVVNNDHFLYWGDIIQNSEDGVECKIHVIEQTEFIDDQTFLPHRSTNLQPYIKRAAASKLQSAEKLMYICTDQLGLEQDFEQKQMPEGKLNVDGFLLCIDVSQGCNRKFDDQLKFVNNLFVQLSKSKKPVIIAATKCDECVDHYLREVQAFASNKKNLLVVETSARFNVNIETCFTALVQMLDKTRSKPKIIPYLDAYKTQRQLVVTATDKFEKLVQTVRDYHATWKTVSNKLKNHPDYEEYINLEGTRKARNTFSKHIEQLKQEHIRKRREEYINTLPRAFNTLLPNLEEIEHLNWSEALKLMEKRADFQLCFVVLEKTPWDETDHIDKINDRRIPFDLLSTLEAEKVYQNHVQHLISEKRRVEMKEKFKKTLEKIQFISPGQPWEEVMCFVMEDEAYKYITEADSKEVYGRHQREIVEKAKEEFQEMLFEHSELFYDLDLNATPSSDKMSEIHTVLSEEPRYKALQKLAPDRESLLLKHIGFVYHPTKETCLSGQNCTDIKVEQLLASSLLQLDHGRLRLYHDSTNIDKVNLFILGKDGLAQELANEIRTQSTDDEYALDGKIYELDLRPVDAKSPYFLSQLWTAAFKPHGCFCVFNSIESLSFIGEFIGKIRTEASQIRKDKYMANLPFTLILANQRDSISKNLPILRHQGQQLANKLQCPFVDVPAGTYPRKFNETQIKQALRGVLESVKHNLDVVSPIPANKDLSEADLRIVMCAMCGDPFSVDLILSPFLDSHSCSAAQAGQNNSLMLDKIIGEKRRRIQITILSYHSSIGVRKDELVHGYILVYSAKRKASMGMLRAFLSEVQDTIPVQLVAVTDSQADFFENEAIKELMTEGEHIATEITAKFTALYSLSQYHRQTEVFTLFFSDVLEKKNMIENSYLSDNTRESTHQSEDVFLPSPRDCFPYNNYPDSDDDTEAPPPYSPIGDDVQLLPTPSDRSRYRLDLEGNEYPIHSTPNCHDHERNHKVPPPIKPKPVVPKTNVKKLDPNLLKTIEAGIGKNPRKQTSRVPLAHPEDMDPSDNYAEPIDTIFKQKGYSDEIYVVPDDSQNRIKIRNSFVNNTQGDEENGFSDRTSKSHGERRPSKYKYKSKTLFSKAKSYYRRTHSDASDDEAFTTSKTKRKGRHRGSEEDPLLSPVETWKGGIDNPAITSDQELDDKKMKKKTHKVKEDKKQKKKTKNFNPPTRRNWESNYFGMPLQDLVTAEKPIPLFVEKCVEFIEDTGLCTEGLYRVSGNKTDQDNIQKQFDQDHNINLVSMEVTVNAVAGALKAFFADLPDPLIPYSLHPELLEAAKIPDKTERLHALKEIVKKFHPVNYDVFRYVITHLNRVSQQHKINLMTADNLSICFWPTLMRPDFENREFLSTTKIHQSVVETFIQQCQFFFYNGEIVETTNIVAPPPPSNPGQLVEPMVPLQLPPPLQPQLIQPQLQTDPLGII
Chain of UniProt Q9Y6D5 (Q9Y6D5 whole entry): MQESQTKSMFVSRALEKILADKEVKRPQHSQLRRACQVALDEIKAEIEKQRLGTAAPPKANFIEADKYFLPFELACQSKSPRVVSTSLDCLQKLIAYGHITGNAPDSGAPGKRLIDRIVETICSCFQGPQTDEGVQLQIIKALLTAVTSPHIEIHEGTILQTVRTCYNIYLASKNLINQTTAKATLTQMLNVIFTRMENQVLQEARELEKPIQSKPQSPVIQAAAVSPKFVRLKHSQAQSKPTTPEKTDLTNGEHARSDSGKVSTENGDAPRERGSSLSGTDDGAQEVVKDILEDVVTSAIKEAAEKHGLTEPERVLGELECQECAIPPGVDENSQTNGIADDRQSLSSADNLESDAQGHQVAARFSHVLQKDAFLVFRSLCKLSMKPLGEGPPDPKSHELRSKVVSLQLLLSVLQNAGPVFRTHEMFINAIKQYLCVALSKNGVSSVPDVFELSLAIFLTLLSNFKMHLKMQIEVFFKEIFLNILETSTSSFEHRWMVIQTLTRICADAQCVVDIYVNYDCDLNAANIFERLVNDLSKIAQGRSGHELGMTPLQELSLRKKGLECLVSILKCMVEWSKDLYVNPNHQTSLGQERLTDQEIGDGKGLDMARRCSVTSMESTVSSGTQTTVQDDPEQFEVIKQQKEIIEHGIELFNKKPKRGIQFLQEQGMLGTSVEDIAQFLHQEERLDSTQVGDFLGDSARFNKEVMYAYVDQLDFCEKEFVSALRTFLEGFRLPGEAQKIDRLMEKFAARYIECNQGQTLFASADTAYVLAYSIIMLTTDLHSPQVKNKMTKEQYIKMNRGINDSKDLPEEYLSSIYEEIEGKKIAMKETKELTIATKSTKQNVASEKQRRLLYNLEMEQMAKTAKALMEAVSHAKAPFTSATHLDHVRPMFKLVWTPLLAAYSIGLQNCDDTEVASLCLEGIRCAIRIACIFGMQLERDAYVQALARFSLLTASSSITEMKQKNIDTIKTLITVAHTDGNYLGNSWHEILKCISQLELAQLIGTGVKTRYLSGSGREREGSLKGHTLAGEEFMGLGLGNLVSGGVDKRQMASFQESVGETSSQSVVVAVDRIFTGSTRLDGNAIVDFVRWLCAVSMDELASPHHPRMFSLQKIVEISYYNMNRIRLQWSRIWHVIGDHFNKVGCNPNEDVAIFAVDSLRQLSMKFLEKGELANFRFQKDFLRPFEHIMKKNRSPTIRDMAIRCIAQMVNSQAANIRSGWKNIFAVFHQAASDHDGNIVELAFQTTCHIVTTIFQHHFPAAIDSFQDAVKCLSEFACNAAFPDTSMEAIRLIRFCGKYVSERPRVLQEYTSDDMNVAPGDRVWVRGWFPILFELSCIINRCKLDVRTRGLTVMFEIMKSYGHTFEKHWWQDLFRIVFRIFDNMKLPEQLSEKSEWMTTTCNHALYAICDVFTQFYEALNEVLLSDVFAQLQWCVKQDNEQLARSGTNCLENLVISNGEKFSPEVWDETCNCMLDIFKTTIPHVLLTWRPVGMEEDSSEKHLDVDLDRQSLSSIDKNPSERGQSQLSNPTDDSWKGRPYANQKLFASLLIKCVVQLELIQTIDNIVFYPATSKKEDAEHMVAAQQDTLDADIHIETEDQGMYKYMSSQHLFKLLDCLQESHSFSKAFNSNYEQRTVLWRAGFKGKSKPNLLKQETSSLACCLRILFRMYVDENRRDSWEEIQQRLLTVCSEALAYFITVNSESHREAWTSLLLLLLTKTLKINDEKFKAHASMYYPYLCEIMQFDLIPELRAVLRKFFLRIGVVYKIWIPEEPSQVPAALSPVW

With APLP2 (UniProt Q06481) the thermal stability z-score (lipoamide; [1]) was -2.13, the thermal stability z-score (lipoamide; arsenate co-treatment: none) was -1.76 and the thermal stability z-score (potassium arsenate) was -0.251.
Work on APMAP (UniProt Q9HDC9) yielded a thermal stability z-score (lipoamide; [1]) of 1.33, a thermal stability z-score (lipoamide; arsenate co-treatment: none) of 0.655 and a thermal stability z-score (potassium arsenate) of 0.179.
APOB (UniProt P04114) showed a thermal stability z-score (lipoamide; [1]) of -0.228, a thermal stability z-score (lipoamide; arsenate co-treatment: none) of 0.0547 and a thermal stability z-score (potassium arsenate) of -0.328.
APOBEC3C (UniProt Q9NRW3) was tested, and the thermal stability z-score (lipoamide; [1]) was -0.418, the thermal stability z-score (lipoamide; arsenate co-treatment: none) was -0.453 and the thermal stability z-score (potassium arsenate) was -0.53.
For APOL2 (UniProt Q9BQE5), the thermal stability z-score (lipoamide; [1]) was -0.399, the thermal stability z-score (lipoamide; arsenate co-treatment: none) was 0.15 and the thermal stability z-score (potassium arsenate) was 0.589.
Target APOO (UniProt Q9BUR5) has a thermal stability z-score (lipoamide; [1]) of 0.803, a thermal stability z-score (lipoamide; arsenate co-treatment: none) of 0.64 and a thermal stability z-score (potassium arsenate) of 0.23.
For APOOL (UniProt Q6UXV4), the thermal stability z-score (lipoamide; [1]) was 0.908, the thermal stability z-score (lipoamide; arsenate co-treatment: none) was 0.782 and the thermal stability z-score (potassium arsenate) was 0.748.
For APP (UniProt P05067), the thermal stability z-score (lipoamide; [1]) was -1.82, the thermal stability z-score (lipoamide; arsenate co-treatment: none) was -1.75 and the thermal stability z-score (potassium arsenate) was 0.137.
For APPBP2 (UniProt Q92624), the thermal stability z-score (lipoamide; [1]) was -0.18, the thermal stability z-score (lipoamide; arsenate co-treatment: none) was 0.0712 and the thermal stability z-score (potassium arsenate) was -0.115.
APPL1 (UniProt Q9UKG1) gave a thermal stability z-score (lipoamide; [1]) of -0.333, a thermal stability z-score (lipoamide; arsenate co-treatment: none) of 0.107 and a thermal stability z-score (potassium arsenate) of 1.2.
Target APPL2 (UniProt Q8NEU8) has a thermal stability z-score (lipoamide; [1]) of 0.0353, a thermal stability z-score (lipoamide; arsenate co-treatment: none) of -0.132 and a thermal stability z-score (potassium arsenate) of -0.0173.
With APRT (UniProt P07741) the thermal stability z-score (lipoamide; [1]) was 0.387, the thermal stability z-score (lipoamide; arsenate co-treatment: none) was 0.419 and the thermal stability z-score (potassium arsenate) was 0.345.
With APTX (UniProt Q7Z2E3) the thermal stability z-score (lipoamide; [1]) was 0.0235, the thermal stability z-score (lipoamide; arsenate co-treatment: none) was 0.0974 and the thermal stability z-score (potassium arsenate) was -0.253.
Target AQR (UniProt O60306) has a thermal stability z-score (lipoamide; [1]) of 0.37, a thermal stability z-score (lipoamide; arsenate co-treatment: none) of 0.297 and a thermal stability z-score (potassium arsenate) of -0.643.
Target ARAF (UniProt P10398) has a thermal stability z-score (lipoamide; [1]) of -0.299, a thermal stability z-score (lipoamide; arsenate co-treatment: none) of -0.252 and a thermal stability z-score (potassium arsenate) of -0.275.
ARAP1 (UniProt Q96P48) gave a thermal stability z-score (lipoamide; [1]) of -0.133, a thermal stability z-score (lipoamide; arsenate co-treatment: none) of -0.0899 and a thermal stability z-score (potassium arsenate) of -0.345.
ARCN1 (UniProt P48444) gave a thermal stability z-score (lipoamide; [1]) of 0.128, a thermal stability z-score (lipoamide; arsenate co-treatment: none) of -0.0303 and a thermal stability z-score (potassium arsenate) of 0.383.
ARF4 (UniProt P18085) gave a thermal stability z-score (lipoamide; [1]) of -0.409, a thermal stability z-score (lipoamide; arsenate co-treatment: none) of -0.09 and a thermal stability z-score (potassium arsenate) of -0.609.
Target ARF5 (UniProt P84085) has a thermal stability z-score (lipoamide; [1]) of -0.258, a thermal stability z-score (lipoamide; arsenate co-treatment: none) of -0.517 and a thermal stability z-score (potassium arsenate) of -0.187.
Target ARF6 (UniProt P62330) has a thermal stability z-score (lipoamide; [1]) of 0.394, a thermal stability z-score (lipoamide; arsenate co-treatment: none) of 0.237 and a thermal stability z-score (potassium arsenate) of 0.683.
With ARFGAP1 (UniProt Q8N6T3) the thermal stability z-score (lipoamide; [1]) was -0.303, the thermal stability z-score (lipoamide; arsenate co-treatment: none) was 0.304 and the thermal stability z-score (potassium arsenate) was 0.357.
Target ARFGAP2 (UniProt Q8N6H7) has a thermal stability z-score (lipoamide; [1]) of -0.346, a thermal stability z-score (lipoamide; arsenate co-treatment: none) of -0.143 and a thermal stability z-score (potassium arsenate) of 0.0541.
ARFGAP3 (UniProt Q9NP61) showed a thermal stability z-score (lipoamide; [1]) of 0.116, a thermal stability z-score (lipoamide; arsenate co-treatment: none) of 0.294 and a thermal stability z-score (potassium arsenate) of 0.0267.
ARFGEF1 (UniProt Q9Y6D6) showed a thermal stability z-score (lipoamide; [1]) of -0.0608, a thermal stability z-score (lipoamide; arsenate co-treatment: none) of -0.273 and a thermal stability z-score (potassium arsenate) of -0.154.
ARFGEF2 (UniProt Q9Y6D5) was tested, and the thermal stability z-score (lipoamide; [1]) was -0.376, the thermal stability z-score (lipoamide; arsenate co-treatment: none) was -0.0733 and the thermal stability z-score (potassium arsenate) was 0.0926.
In the case of ARFIP1 (UniProt P53367), the thermal stability z-score (lipoamide; [1]) is reported as 0.444, the thermal stability z-score (lipoamide; arsenate co-treatment: none) is reported as 0.144 and the thermal stability z-score (potassium arsenate) is reported as 0.0115.
In the case of ARFIP2 (UniProt P53365), the thermal stability z-score (lipoamide; [1]) is reported as -0.0772, the thermal stability z-score (lipoamide; arsenate co-treatment: none) is reported as -0.0355 and the thermal stability z-score (potassium arsenate) is reported as 0.108.
ARFRP1 (UniProt Q13795) gave a thermal stability z-score (lipoamide; [1]) of 0.241, a thermal stability z-score (lipoamide; arsenate co-treatment: none) of 0.279 and a thermal stability z-score (potassium arsenate) of -0.148.
Target ARGLU1 (UniProt Q9NWB6) has a thermal stability z-score (lipoamide; [1]) of 0.406, a thermal stability z-score (lipoamide; arsenate co-treatment: none) of 0.211 and a thermal stability z-score (potassium arsenate) of -0.658.
In the case of ARHGAP1 (UniProt Q07960), the thermal stability z-score (lipoamide; [1]) is reported as -1.02, the thermal stability z-score (lipoamide; arsenate co-treatment: none) is reported as -0.692 and the thermal stability z-score (potassium arsenate) is reported as -0.115.
Work on ARHGAP4 (UniProt P98171) yielded a thermal stability z-score (lipoamide; [1]) of -0.00218, a thermal stability z-score (lipoamide; arsenate co-treatment: none) of 0.000585 and a thermal stability z-score (potassium arsenate) of 0.0513.
ARHGAP5 (UniProt Q13017) gave a thermal stability z-score (lipoamide; [1]) of 0.182, a thermal stability z-score (lipoamide; arsenate co-treatment: none) of -0.703 and a thermal stability z-score (potassium arsenate) of -0.265.
ARHGAP10 (UniProt A1A4S6) was tested, and the thermal stability z-score (lipoamide; [1]) was 0.133, the thermal stability z-score (lipoamide; arsenate co-treatment: none) was 0.268 and the thermal stability z-score (potassium arsenate) was 0.226.
Work on ARHGAP12 (UniProt Q8IWW6) yielded a thermal stability z-score (lipoamide; [1]) of -0.578, a thermal stability z-score (lipoamide; arsenate co-treatment: none) of -0.344 and a thermal stability z-score (potassium arsenate) of 0.668.
ARHGAP17 (UniProt Q68EM7) showed a thermal stability z-score (lipoamide; [1]) of 0.0634, a thermal stability z-score (lipoamide; arsenate co-treatment: none) of 0.493 and a thermal stability z-score (potassium arsenate) of 0.874.
